pIC50: −log10 of the molar value.
Columns and labels:
tested cell lines = settings: Matyskiela, Lu et al. 2016; cited from earlier work
GSPT1 = GSPT1 (Homo sapiens, UniProt P15170+Q96SW2); design: MOLM-13 cells were treated at indicated concentrations with compounds GS-729, GS-731, GS-697, and GS-788 for 16 hours prior to immunoblotting; endogenous in cells; host or cells: MOLM-13; settings: Matyskiela, Lu et al. 2016; cited from earlier work
MOLM-13 cells = assay: Cell viability assay (CellTiter-Glo) in MOLM-13 cells; assay type: cell-based; settings: Homo sapiens, 72 h; MOLM-13 cells, compound alone, three days; read-out: MOLM-13 IC50
HEL cells = assay: Cell viability assay in HEL cells; assay type: cell-based; settings: Homo sapiens
Experimental: (§1) Cell Culture: RS4;11, MV4;11, MOLM-13 and other cells were cultured at 37° C. with 5% CO2 in RPMI 1640 or DMEM Medium supplemented with 10% fetal bovine serum. Cells were authenticated using the short tandem repeat (STR) assays. Mycoplasma test results were negative.
(§2) Cell viability assays: Cells were seeded at a density of 5000 cells per well in 96-well assay plates and treated with test compounds following a 8-point or 12-point 3-fold serial dilution. Three days later, cell viability was determined using the CellTiter-Glo assay kit according to the manufacturer's instructions. The dose-response curves were determined and IC50 values were calculated using the GraphPad Prism software following a nonlinear regression (least squares fit) method.
(§3) The compounds were tested in HEL, 22RV1, NCI-H82 or NCI-H1155 cells.

22RV1 cells = assay: Cell viability assay in 22RV1 cells; assay type: cell-based; settings: Homo sapiens
Experimental: as §1, §2, §3

NCI-H82 cells = assay: Cell viability assay in NCI-H82 cells; assay type: cell-based; settings: Homo sapiens
Experimental: as §1, §2, §3

GSPT1, sequence (P15170 whole entry): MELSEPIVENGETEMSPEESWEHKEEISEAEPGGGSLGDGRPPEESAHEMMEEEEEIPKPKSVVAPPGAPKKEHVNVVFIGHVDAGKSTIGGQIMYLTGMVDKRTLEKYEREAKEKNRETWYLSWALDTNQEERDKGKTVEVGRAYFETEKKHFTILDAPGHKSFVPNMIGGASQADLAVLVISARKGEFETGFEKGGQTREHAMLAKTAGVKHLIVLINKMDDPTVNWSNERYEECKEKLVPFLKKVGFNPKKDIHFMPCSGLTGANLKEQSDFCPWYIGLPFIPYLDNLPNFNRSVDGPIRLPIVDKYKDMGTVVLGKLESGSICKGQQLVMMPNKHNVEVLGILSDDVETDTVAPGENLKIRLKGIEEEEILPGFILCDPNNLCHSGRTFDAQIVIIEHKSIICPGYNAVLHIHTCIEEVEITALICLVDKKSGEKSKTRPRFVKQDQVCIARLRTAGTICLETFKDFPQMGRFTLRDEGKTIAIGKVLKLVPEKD
GSPT1, sequence (Q96SW2 whole entry): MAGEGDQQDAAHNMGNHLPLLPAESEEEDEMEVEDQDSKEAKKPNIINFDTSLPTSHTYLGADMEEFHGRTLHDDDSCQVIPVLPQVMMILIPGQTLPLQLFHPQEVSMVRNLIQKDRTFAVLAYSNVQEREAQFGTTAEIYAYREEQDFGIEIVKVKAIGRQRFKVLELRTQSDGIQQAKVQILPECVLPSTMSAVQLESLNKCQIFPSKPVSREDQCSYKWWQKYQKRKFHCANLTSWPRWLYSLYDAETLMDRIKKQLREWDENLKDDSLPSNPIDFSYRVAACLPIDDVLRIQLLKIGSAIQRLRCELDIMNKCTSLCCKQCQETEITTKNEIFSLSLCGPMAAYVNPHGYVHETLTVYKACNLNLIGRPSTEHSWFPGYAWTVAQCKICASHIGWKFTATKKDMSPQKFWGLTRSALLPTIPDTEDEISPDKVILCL
GSPT1, sequence (Q16531 whole entry partner): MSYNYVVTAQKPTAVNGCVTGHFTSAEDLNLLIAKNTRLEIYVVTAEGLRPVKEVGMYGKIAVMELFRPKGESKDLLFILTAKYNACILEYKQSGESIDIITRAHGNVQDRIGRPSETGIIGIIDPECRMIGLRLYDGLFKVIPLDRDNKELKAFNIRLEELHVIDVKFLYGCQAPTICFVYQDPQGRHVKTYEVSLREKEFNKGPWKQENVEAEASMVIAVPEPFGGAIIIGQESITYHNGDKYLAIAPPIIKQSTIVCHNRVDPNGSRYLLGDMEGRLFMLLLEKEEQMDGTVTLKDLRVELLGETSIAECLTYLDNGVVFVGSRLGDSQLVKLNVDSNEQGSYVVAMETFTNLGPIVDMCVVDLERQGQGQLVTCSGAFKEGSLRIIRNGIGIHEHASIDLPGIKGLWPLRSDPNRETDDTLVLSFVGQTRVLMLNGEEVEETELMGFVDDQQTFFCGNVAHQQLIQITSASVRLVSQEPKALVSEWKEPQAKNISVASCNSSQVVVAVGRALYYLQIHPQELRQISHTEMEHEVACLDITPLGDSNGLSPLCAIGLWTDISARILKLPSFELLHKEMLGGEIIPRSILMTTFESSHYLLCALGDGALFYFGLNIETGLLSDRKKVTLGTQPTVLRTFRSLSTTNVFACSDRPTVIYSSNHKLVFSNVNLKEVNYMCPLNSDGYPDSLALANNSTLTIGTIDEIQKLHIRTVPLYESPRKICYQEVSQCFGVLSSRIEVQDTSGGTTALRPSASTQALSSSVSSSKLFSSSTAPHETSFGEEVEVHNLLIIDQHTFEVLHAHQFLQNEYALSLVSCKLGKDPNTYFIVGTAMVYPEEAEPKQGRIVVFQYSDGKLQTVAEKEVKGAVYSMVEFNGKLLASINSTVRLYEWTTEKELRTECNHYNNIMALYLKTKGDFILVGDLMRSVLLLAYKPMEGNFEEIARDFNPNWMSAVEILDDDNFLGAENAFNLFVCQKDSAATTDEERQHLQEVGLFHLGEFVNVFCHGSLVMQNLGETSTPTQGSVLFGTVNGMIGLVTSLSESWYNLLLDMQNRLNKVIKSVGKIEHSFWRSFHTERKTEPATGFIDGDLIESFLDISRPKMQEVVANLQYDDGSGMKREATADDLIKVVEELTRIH

Row | pIC50 (MOLM-13 cells) | pIC50 (22RV1 cells) | pIC50 (NCI-H82 cells) | SMILES | toxicity in tested cell lines (tested cell lines) | cereblon-dependent degradation of GSPT1 (GSPT1) | pIC50 (HEL cells)
1 | – | – | – | Cc1ccc(NC(=O)NCc2ccc3c(c2)CN(C2CCC(=O)NC2=O)C3=O)cc1Cl (stereo not drawn) [CC-885] | induced significant toxicity in the vast majority of tested cell lines | led to cereblon-dependent degradation of GSPT1 | –
2 | > 8.00 | > 8.00 | > 8.00 | Cc1nc(-c2cn([C@H]3C[C@H](CNc4ccc5c(c4)CN([C@H]4CCC(=O)NC4=O)C5=O)C3)nc2C2CC2)ccc1F [GS-800, (S)-3-(5-(((trans-3-(3-cyclopropyl-4-(5-fluoro-6-methylpyridin-2-yl)-1H-pyrazol-1-yl)cyclobutyl)methyl)amino)-1-oxoisoindolin-2-yl)piperidine-2,6-dione] | – | – | 7.00 to 8.00
